Laboratory results taken from patent publication US10898567B2, “Synthetic long peptides (SLP) for therapeutic vaccination against Hepatitis B virus infection” (priority 2014, dated 2021).

Tested on: PBMC derived from HBV-immune donors
Type: cell-based, human
Conditions: six HBV-immune donors; for positive IFNγ response (SI>3) in HBV-immune donors / IFNγ response in multiple HBV-immune donors: IFNγ-ELISpot; for IFNγ response in multiple HBV-immune donors: SI>3; for average SI of the IFNγ-responses: PBMC pre-stimulated with 3 nmol/ml peptide for 72 hours
Method: To detect antigen-specific IFNγ-producing human T cells, the PBMC were first pre-stimulated with 3 nmol/ml of the indicated peptide for 72 hours at 37° C. […] After stimulation of the PBMC, the coating antibody was aspirated from the plate, and washed 4 times with PBS. To block aspecific binding, 100 μl of IMDM containing 8% FCS was added to all wells and incubated at 37° C. for 1 hour. In the meantime, stimulated PBMC were harvested, centrifuged, resuspended in X-vivo 15 medium (Lonza) and counted. […] The medium in the wells of the PVDF plate was aspirated and 100 μl of each PBMC sample was added to the plate in quadruplicates. The plates were incubated at 37° C. overnight. The next day, the supernatant was discarded and plates are washed 6 times with PBS/Tween20 0.05%. […] Next, plates were washed 6 times using PBS/Tween20 0.05% and 1 μg/ml Extravidin-Alkaline phosphatase (ALP) (Sigma-Aldrich) was added to all wells (100 μl/well) in PBS with 1% FBS. The plates were incubated for 1 hour at RT. ALP substrate solution BCIP/NBT-plus (Mabtech) was prepared and 100 μl/well was added to all wells after the plates were washed 4 times with PBS/Tween20 0.05%. To terminate the colorimetric reaction (after 1-20 minutes), tap water was used to wash the plates extensively. After drying, the formed spots were measured on a Biosys Bioreader 5000.
To assess the relevance of the selected vaccine peptides for the clearance of a naturally occurring HBV infection, we tested the presence of T cell responses against the 13 selected HBV peptides in PBMC derived from six HBV-immune donors. After isolation of the PBMC, cells were stimulated with each of the 13 peptides and an IFNγ-ELISpot was performed to detect T cell responses.

Row | Sequence | positive IFNγ response (SI>3) in HBV-immune donors | IFNγ response in multiple HBV-immune donors | average SI of the IFNγ-responses
1 | SSWAFAKYLWEWASVRFSWLSLLVPFVQWFV (HBV large surface protein aa 328-358) [SLP34] | Responses were observed | induced responses in multiple donors | 3.02
2 | YPALMPLYACIQAKQAFTFSPTYKAFLSKQYMNLYPVAR (HBV Polymerase aa 653 - 691 (SLP No. 18)) [SLP18] | Responses were observed |  | 1.86
3 | SPFLLAQFTSAICSVVRRAFPHCLAFSYMDDVVLGA (HBV Polymerase aa 524 - 559 (SLP No. 14)) [SLP14] | Responses were observed |  | 1.97
4 | DPASRDLVVNYVNTNVGLKIRQLLWFHISCLTFGR (HBV Core aa 107 - 141 (SLP No. 24)) [SLP24] | Responses were observed | induced responses in multiple donors | 2.54
5 | CAFSSAGPCALRFTSARRMETTVNAHQILPKVLHK [SLP27] | Responses were observed |  | 
6 | MPLSYQHFRKLLLLDDGTEAGPLEEELPRL (HBV Polymerase aa 1 - 30 (SLP No. 1)) [SLP1] |  |  | 1.21
7 | HDSCSRQLYVSLMLLYKTYGWKLHLYSHPIVLGF (HBV Polymerase aa 481 - 514 (SLP No. 13)) [SLP13] | Responses were observed | induced responses in multiple donors | 2.44
8 | NLLSSNLSWLSLDVSAAFYHIPLHPAAMPHLLIGSSGL (HBV Polymerase aa 419 - 456 (SLP No. 10)) [SLP10] | Responses were observed | induced responses in multiple donors | 2.40
9 | ALPSPSPSAVPADHGAHLSLRGLPVCAFSSAGP [SLP26] | Responses were observed |  | 1.56
10 | VVNHYFQTRHYLHTLWKAGILYKRETTRSASFCGSPYSW (HBV Polymerase aa 139 - 177 (SLP No. 5)) [SLP5] | Responses were observed |  | 2.11
